Columns and labels:
A549 cells = assay: A549 growth inhibition by chemotherapeutic agents (concentration selection); format: cell-based, human; conditions: A549, serial dilutions, 5 days, CCK-8
Method: First, sorafenib was dissolved in dimethyl sulfoxide.
First, gemcitabine was dissolved in dimethyl sulfoxide.
First, paclitaxel was dissolved in […].

[1] = tested on: A549 (human lung cancer cell line); assay: A549 cell proliferation analysis, anti-CD300c antibody with chemotherapeutic agent; format: cell-based; conditions: 5 days
Method: In order to identify the cancer cell growth inhibitory effect by combined treatment with an anti-CD300c monoclonal antibody and sorafenib, cell proliferation analysis was performed using A549 (human lung cancer cell line). Into a 96-well plate, 20,000 cancer cells were inoculated and treated with 10 ug/mL anti-CD300c monoclonal antibody and 9 μM sorafenib, followed by incubation for 5 days. After the incubation, 10 μL of CCK-8 (DOJINDO) was added to each well, followed by incubation for 4 hours, and the absorbance was measured at 450 nm.
In order to identify the cancer cell growth inhibitory effect by combined treatment with an anti-CD300c monoclonal antibody and gemcitabine, cell proliferation analysis was performed using A549 (human lung cancer cell line). The cells were treated with the anti-CD300c antibody in combination with 1.9 μM gemcitabine for 5 days, and then 10 μL of CCK-8 (DOJINDO) was added to each well, followed by incubation for 4 hours, and the absorbance was measured at 450 nm.
In order to identify the cancer cell growth inhibitory effect by combined treatment with an anti-CD300c monoclonal antibody and paclitaxel, cell proliferation analysis was performed using A549 (human lung cancer cell line). The cells were treated with the anti-CD300c monoclonal antibody in combination with paclitaxel and incubated for 5 days. Thereafter, 10 μL of CCK-8 (DOJINDO) was added to each well, followed by incubation for 4 hours, and the absorbance was measured at 450 nm.

[2] = tested on: MKN45, IM95, HT-29, A549, HCT116, MDA-MB-231, HepG2 cancer cell lines; assay: Cancer cell apoptosis resistance (rapamycin, Annexin V / PI fluorescence); format: cell-based, human; conditions: 8 hours treatment, then rapamycin 48 hours
Description: (§1) In order to identify whether the combined treatment with an anti-CD300c monoclonal antibody and a chemotherapeutic agent can inhibit cancer cell apoptosis resistance, MKN45 (human gastric cancer cell line), IM95 (human gastric cancer cell line), HT-29 (human colon cancer cell line), A549 (human lung cancer cell line), HCT116 (human colon cancer cell line), MDA-MB-231 (human breast cancer cell line), and HepG2 (human liver cancer cell line) were used. Each type of cancer cells were inoculated at 1×10^4 into a 96-well plate and incubated for 16 hours. The incubated cells were treated with an anti-CD300c monoclonal antibody and a chemotherapeutic agent in combination for 8 hours, and then treated with rapamycin for 48 hours. The degree of survival of cancer cells was identified by fluorescence analysis using Annexin V and propidium iodide (PI).
as §1, with “gemcitabine” for “a chemotherapeutic agent”, “The incubated cells were treated with an anti-CD300c monoclonal antibody and a chemotherapeutic agent in combination for 8 hours, and then treated with rapamycin for 48 hours.” left out
In order to identify whether the combined treatment with an anti-CD300c monoclonal antibody and paclitaxel can inhibit cancer cell apoptosis resistance, MKN45 (human gastric cancer cell line), IM95 (human gastric cancer cell line), HT-29 (human colon cancer cell line), A549 (human lung cancer cell line), HCT116 (human colon cancer cell line), MDA-MB-231 (human breast cancer cell line), and HepG2 (human liver cancer cell line) were used. […] The degree of survival of cancer cells was identified by fluorescence analysis using Annexin V and propidium iodide (PI).

[3] = tested on: MKN45, IM95, HT-29, A549, HCT116, MDA-MB-231, HepG2 cancer cell lines; assay: Cancer cell migration/infiltration (scratch wound); format: cell-based, human; conditions: 24 hours
Description: (§2) In order to identify the cancer cell migration/infiltration inhibitory effect by the combined treatment with an anti-CD300c monoclonal antibody and sorafenib, MKN45 (human gastric cancer cell line), IM95 (human gastric cancer cell line), HT-29 (human colon cancer cell line), A549 (human lung cancer cell line), HCT116 (human colon cancer cell line), MDA-MB-231 (human breast cancer cell line), and HepG2 (human liver cancer cell line) were used. Into a 6-well plate, 1×10^5 cancer cells were inoculated and incubated for 16 hours, and then each well was wounded by scratching with a pipette tip. The detached cells were removed by washing with medium, and then treated with an anti-CD300c monoclonal antibody for 8 hours. Thereafter, observation was performed for 24 hours. On the basis of the area of the wound formed by scratching with the pipette tip, the migration distance of cancer cells was measured, and this distance was calculated as a percentage (%) to identify the degree of migration inhibition.
as §2, with “migration/invasion” for “migration/infiltration”, “gemcitabine, MKN45,” for “sorafenib, MKN45 (human gastric cancer cell line),”, “inhibition. […]” for “inhibition.”

[4] = tested on: CT26 cells (mouse colon cancer cell line); assay: In vivo anticancer effect in huCD34-NSG mice bearing CT26 cells; parameters: species or system humanized mouse models (huCD34-NSG mice); conditions: antibody 25 mg/kg, chemotherapeutic agents 10 mg/kg, i.p. twice a week, four times
Method: In order to identify the anticancer effect under in vivo conditions by the combined treatment with an anti-CD300c monoclonal antibody and a chemotherapeutic agent, human solid tumor xenograft models were prepared by subcutaneous injection of 1×10^6 CT26 cells (mouse colon cancer cell line) to humanized mouse models (huCD34-NSG mice). From 3 days after the administration of cancer cells, the mice were divided into a group administered 25 mg/kg anti-CD300c monoclonal antibody alone, groups administered the chemotherapeutic agents sorafenib, gemcitabine, and paclitaxel at 10 mg/kg for each, groups administered an anti-CD300c monoclonal antibody and chemotherapeutic agents, and a non-administered group. After the intraperitoneal administration with the anti-CD300c monoclonal antibody and each of the chemotherapeutic agents alone or in combination twice a week, a total of four times, the solid tumor tissue was isolated from the mice to measure the size thereof to identify the therapeutic effect of the anti-CD300c monoclonal antibody alone and the effects of the combined administration with existing chemotherapeutic agents.

| Structure (SMILES) | cancer cell growth inhibitory effect (A549 cells) | inhibition at 9 µM ([1]; Homo sapiens, 120 h, A549, antibody 10 ug/mL, sorafenib 9 μM, read-out: cancer cell growth inhibitory rate) | increase in MFI compared with hIgG1 isotype control group ([2]; sorafenib experiment) | degree of migration inhibition ([3]; sorafenib experiment) | tumor inhibition rate [4] | inhibition at 1.9 µM ([1]; Homo sapiens, 120 h, A549, gemcitabine 1.9 μM, read-out: cancer cell growth inhibitory rate) | increase in MFI compared with hIgG1 isotype control group ([2]; gemcitabine experiment) | degree of migration inhibition ([3]; gemcitabine experiment) | cancer cell growth inhibitory rate ([1]; A549, paclitaxel experiment) | increase in MFI compared with hIgG1 isotype control group ([2]; paclitaxel experiment) | degree of migration inhibition ([3]; paclitaxel experiment) |
| --- | --- | --- | --- | --- | --- | --- | --- | --- | --- | --- | --- |
| CNC(=O)c1cc(Oc2ccc(NC(=O)Nc3ccc(Cl)c(C(F)(F)F)c3)cc2)ccn1 [sorafenib] | concentration-dependent cancer cell growth inhibitory effect | 45% | 21% | 32% | 22% |  |  |  |  |  |  |
| Nc1ccn([C@@H]2O[C@H](CO)[C@@H](O)C2(F)F)c(=O)n1 [gemcitabine] | concentration-dependent cancer cell growth inhibitory effect |  |  |  | 25% | 38% | 21% | 28% |  |  |  |
| CC(=O)O[C@H]1C(=O)[C@@]2(C)[C@H]([C@H](OC(=O)c3ccccc3)[C@]3(O)C[C@H](OC(=O)[C@H](O)[C@@H](NC(=O)c4ccccc4)c4ccccc4)C(C)=C1C3(C)C)[C@]1(OC(C)=O)CO[C@@H]1C[C@@H]2O [paclitaxel] | concentration-dependent cancer cell growth inhibitory effect |  |  |  | 21% |  |  |  | 24% | 19% | 20% |
